Patent US8415486B2, “IAP inhibitors” (TetraLogic Pharmaceuticals Corp., priority 2009, dated 2013)

Legend:
[1] = test system: ovarian cancer cell line, SK-OV-3; test: SK-OV-3 cell growth inhibition (MTT, 72 hrs); type: cell-based; conditions: Homo sapiens, concentration giving 50% cell survival, reported as ranges
Procedure: Compounds of the invention also were tested for their ability to inhibit the growth of an ovarian cancer cell line, SK-OV-3. A known assay previously used for measuring cell growth (as described in Hansen, M. B., Nielsen, S. E., and Berg, K. (1989) J. Immunol. Methods 119, 203-210 and incorporated herein by reference in its entirety) was used. Briefly, SK-OV-3 cells are seeded in 96-well plates in McCoy's medium containing 10% fetal bovine serum albumin (5,000 per well) and incubated overnight at 37° C. The next day, test compounds are added at various concentrations (0.003-10 μM) and the plates are incubated at 37° C. for an additional 72 hrs. This incubation time was considered to be optimal for measuring inhibitory effects of the different compounds tested. 50 microliters of 5 mg/mL MTT reagent is added to each well and the plates are incubated at 37° C. for another three (3) hours. At the end of the three (3) hour incubation period, 50 microliters of DMSO is added to each well to dissolve cells and the optical density (OD) of the wells is measured with a microplate reader (Victor^2 1420, Wallac, Finland) at 535 nm. Cell survival (CS) was calculated using the following equation: CS=(OD treated well/mean OD control wells)×100%.
The CC50 (reported in the following tables), is defined as the drug concentration that results in 50% cell survival (CS), and is derived by calculating the point where the dose-response curve crosses the 50% CS point using GraphPad Prism. The reported CC50 values are supplied as ranges (A=<0.1 μM, B=0.1 μM to 1 μM, C=>1 μM to 10 μM, D=>10 μM).

[2] = target: T1, XIAP BIR-3 (Homo sapiens, UniProt P98170); test: Fluorescence polarization binding to XIAP BIR-3 with labeled peptide AbuRPF-K(5-Fam)-NH2; conditions: 40 nM BIR3, 5 nM labeled peptide, reported as ranges
T1 construct: 40 nM of the respective IAP BIR3
Procedure: (§1) The binding affinities of the compounds are reported as a KD value (μM). Briefly, various concentrations of test peptides were mixed with 5 nM of the fluorescently labeled peptide (i.e., a mutated N-terminal Smac peptide—AbuRPF-K(5-Fam)-NH2) and 40 nM of the respective IAP BIR3 for 15 min at RT in […] of 0.1M Potassium Phosphate buffer, pH 7.5 containing 100 mg/ml bovine g-globulin. Following incubation, the polarization values (mP) were measured on a Victor2V (available from PerkinElmer Life Sciences) using a 485 nm excitation filter and a 520 nm emission filter. The reported binding affinities (KD values) are supplied as ranges (A=<0.1 μM, B=0.1 μM to 1 μM, C=>1 μM to 10 μM, D=>10 μM).

[3] = target: T2, cIAP-1 BIR-3 (Homo sapiens, UniProt Q13490); test: Fluorescence polarization binding to cIAP-1 BIR-3 with labeled peptide AbuRPF-K(5-Fam)-NH2; conditions: 40 nM BIR3, 5 nM labeled peptide, reported as ranges, read-out: KD (c-IAP-1 BIR3)
T2 construct: 40 nM of the respective IAP BIR3
Procedure: as §1

T2 sequence (Q13490 253-363 limits assumed): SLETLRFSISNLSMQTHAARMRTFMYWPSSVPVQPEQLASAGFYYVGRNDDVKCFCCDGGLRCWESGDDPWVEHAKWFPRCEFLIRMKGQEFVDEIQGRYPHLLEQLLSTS
T1 sequence (P98170 241-356 limits assumed): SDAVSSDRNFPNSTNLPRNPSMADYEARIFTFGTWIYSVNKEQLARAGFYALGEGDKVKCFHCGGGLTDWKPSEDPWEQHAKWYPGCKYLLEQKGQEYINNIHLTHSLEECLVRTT

SMILES	Kd [2] [nM]	Kd [3] [nM]	CC50 [1] [nM]
CN[C@@H](C)C(=O)N[C@H](C(=O)N1CC[C@@H]2[C@H]1[C@@H](Oc1ccccc1)CN2C(=O)OC(C)(C)C)C(C)C [Example 1, 4-[3-Methyl-2-(2-methylamino-propionylamino)-butyryl]-3-phenoxy-hexahydro-pyrrolo[3,2-b]pyrrole-1-carboxylic acid tert-butyl ester]	100 to 1000	< 100	< 100
CN[C@@H](C)C(=O)N[C@H](C(=O)N1CC[C@@H]2[C@H]1[C@@H](Oc1ccccc1)CN2C(C)=O)C(C)C [Example 2, N-[1-(4-Acetyl-6-phenoxy-hexahydro-pyrrolo[3,2-b]pyrrole-1-carbonyl)-2-methyl-propyl]-2-methylamino-propionamide]	1000 to 10000	< 100	< 100
CN[C@@H](C)C(=O)N[C@H](C(=O)N1CC[C@@H]2[C@H]1[C@@H](Oc1ccccc1)CN2S(C)(=O)=O)C(C)C [Example 3, N-[1-(4-Methanesulfonyl-6-phenoxy-hexahydro-pyrrolo[3,2-b]pyrrole-1-carbonyl)-2-methyl-propyl]-2-methylamino-propionamide]	< 100	< 100	< 100
CN[C@@H](C)C(=O)N[C@H](C(=O)N1CC[C@H]2NC[C@H](Oc3ccc4c(c3)CCCC4)[C@H]21)C1CCCCC1 [Example 6, N-{1-Cyclohexyl-2-oxo-2-[6-(5,6,7,8-tetrahydro-naphthalen-2-yloxy)-hexahydro-pyrrolo[3,2-b]pyrrol-1-yl]-ethyl}-2-methylamino-propionamide]	< 100	< 100	< 100
CN[C@@H](C)C(=O)N[C@H](C(=O)N1CC[C@H]2NC[C@H](Oc3ccc4ccccc4c3)[C@H]21)C1CCCCC1 [Example 7, N-{1-Cyclohexyl-2-[6-(naphthalen-2-yloxy)-hexahydro-pyrrolo[3,2-b]pyrrol-1-yl]-2-oxo-ethyl}-2-methylamino-propionamide]	< 100	< 100	< 100
CN[C@@H](C)C(=O)N[C@H](C(=O)N1CC[C@H]2NC[C@H](Oc3cccc4ccccc34)[C@H]21)C1CCCCC1 [Example 8, N-{1-Cyclohexyl-2-[6-(naphthalen-1-yloxy)-hexahydro-pyrrolo[3,2-b]pyrrol-1-yl]-2-oxo-ethyl}-2-methylamino-propionamide]	< 100	< 100	100 to 1000
CN[C@@H](C)C(=O)N[C@H](C(=O)N1CC[C@@H]2[C@H]1[C@@H](Oc1ccc(F)cc1)CN2S(C)(=O)=O)C(C)C [Example 9, N-{1-[6-(4-Fluoro-phenoxy)-4-methanesulfonyl-hexahydro-pyrrolo[3,2-b]pyrrole-1-carbonyl]-2-methyl-propyl}-2-methylamino-propionamide]	< 100	< 100	< 100
CN[C@@H](C)C(=O)N[C@H](C(=O)N1CC[C@@H]2[C@H]1[C@@H](Oc1ccc(F)cc1)CN2S(C)(=O)=O)C1CCCCC1 [Example 10, N-{1-Cyclohexyl-2-[6-(4-fluoro-phenoxy)-4-methanesulfonyl-hexahydro-pyrrolo[3,2-b]pyrrol-1-yl]-2-oxo-ethyl}-2-methylamino-propionamide]	< 100	< 100	< 100
CN[C@@H](C)C(=O)N[C@H](C(=O)N1CC[C@@H]2[C@H]1[C@@H](Oc1ccc(F)c(F)c1)CN2S(C)(=O)=O)[C@@H](C)OC [Example 14, N-{1-[6-(3,4-Difluoro-phenoxy)-4-methanesulfonyl-hexahydro-pyrrolo[3,2-b]pyrrole-1-carbonyl]-2-methoxy-propyl}-2-methylamino-propionamide]	< 100	< 100	< 100
CN[C@@H](C)C(=O)N[C@H](C(=O)N1CC[C@@H]2[C@H]1[C@@H](Oc1ccc(F)c(F)c1)CN2C1CCOCC1)C(C)(C)C [Example 15, N-{1-[6-(3,4-Difluoro-phenoxy)-4-(tetrahydro-pyran-4-yl)-hexahydro-pyrrolo[3,2-b]pyrrole-1-carbonyl]-2,2-dimethyl-propyl}-2-methylamino-propionamide]	100 to 1000	< 100	< 100
CCN1C[C@H](Oc2ccc(F)c(F)c2)[C@@H]2[C@H]1CCN2C(=O)[C@@H](NC(=O)[C@H](C)NC)C(C)(C)C [Example 16, N-{1-[6-(3,4-Difluoro-phenoxy)-4-ethyl-hexahydro-pyrrolo[3,2-b]pyrrole-1-carbonyl]-2,2-dimethyl-propyl}-2-methylamino-propionamide]	< 100	< 100	100 to 1000
CN[C@@H](C)C(=O)N[C@H](C(=O)N1CC[C@@H]2[C@H]1[C@@H](Oc1ccc(F)c(F)c1)CN2C1CCCC1)C(C)(C)C [Example 17, N-{1-[4-Cyclopentyl-6-(3,4-difluoro-phenoxy)-hexahydro-pyrrolo[3,2-b]pyrrole-1-carbonyl]-2,2-dimethyl-propyl}-2-methylamino-propionamide]	100 to 1000	< 100	< 100
CN[C@@H](C)C(=O)N[C@H](C(=O)N1CC[C@@H]2[C@H]1[C@@H](Oc1ccc(F)c(F)c1)CN2S(C)(=O)=O)C(C)(C)C [Example 19, N-{1-[6-(3,4-Difluoro-phenoxy)-4-methanesulfonyl-hexahydro-pyrrolo[3,2-b]pyrrole-1-carbonyl]-2,2-dimethyl-propyl}-2-methylamino-propionamide]	< 100	< 100	< 100

The next lines start with results.

Kd [2] [nM]	Kd [3] [nM]	SMILES	CC50 [1] [nM]
100 to 1000	< 100	CN[C@@H](C)C(=O)N[C@H](C(=O)N1CC[C@H]2NC[C@H](Oc3ccccc3-c3ccccc3)[C@H]21)C1CCCCC1 [Example 4, N-{2-[6-(Biphenyl-2-yloxy)-hexahydro-pyrrolo[3,2-b]pyrrol-1-yl]-1-cyclohexyl-2-oxo-ethyl}-2-methylamino-propionamide]	100 to 1000
100 to 1000	< 100	CN[C@@H](C)C(=O)N[C@H](C(=O)N1CC[C@H]2NC[C@H](Oc3cccc4c3CCCC4)[C@H]21)C1CCCCC1 [Example 5, N-{1-Cyclohexyl-2-oxo-2-[6-(5,6,7,8-tetrahydro-naphthalen-1-yloxy)-hexahydro-pyrrolo[3,2-b]pyrrol-1-yl]-ethyl}-2-methylamino-propionamide]	100 to 1000
< 100	< 100	CN[C@@H](C)C(=O)N[C@H](C(=O)N1CC[C@@H]2[C@H]1[C@@H](Oc1ccc(F)cc1)CN2S(C)(=O)=O)[C@@H](C)OC [Example 11, N-{1-[6-(4-Fluoro-phenoxy)-4-methanesulfonyl-hexahydro-pyrrolo[3,2-b]pyrrole-1-carbonyl]-2-methoxy-propyl}-2-methylamino-propionamide]	< 100
< 100	< 100	CN[C@@H](C)C(=O)N[C@H](C(=O)N1CC[C@@H]2[C@H]1[C@@H](Oc1ccc(F)c(F)c1)CN2S(C)(=O)=O)C(C)C [Example 12, N-{1-[6-(3,4-Difluoro-phenoxy)-4-methanesulfonyl-hexahydro-pyrrolo[3,2-b]pyrrole-1-carbonyl]-2-methyl-propyl}-2-methylamino-propionamide]	< 100
< 100	< 100	CN[C@@H](C)C(=O)N[C@H](C(=O)N1CC[C@@H]2[C@H]1[C@@H](Oc1ccc(F)c(F)c1)CN2S(C)(=O)=O)C1CCCCC1 [Example 13, N-{1-Cyclohexyl-2-[6-(3,4-difluoro-phenoxy)-4-methanesulfonyl-hexahydro-pyrrolo[3,2-b]pyrrol-1-yl]-2-oxo-ethyl}-2-methylamino-propionamide]	< 100
< 100	< 100	CN[C@@H](C)C(=O)N[C@H](C(=O)N1CC[C@@H]2[C@H]1[C@@H](Oc1ccc(F)c(F)c1)CN2c1ncccn1)C(C)(C)C [Example 18, N-{1-[6-(3,4-Difluoro-phenoxy)-4-pyrimidin-2-yl-hexahydro-pyrrolo[3,2-b]pyrrole-1-carbonyl]-2,2-dimethyl-propyl}-2-methylamino-propionamide]	< 100
